These results are taken from patent publication US11529350B2, “Tyrosine kinase non-receptor 1 (TNK1) inhibitors and uses thereof” (Sumitomo Pharma Oncology, Inc., priority 2019, dated 2022).

pIC50: −log10 of the molar value.

The test system of experiment [1] is phospho-STAT5 in L540 cells. The experiment in a line: In vitro pSTAT5 assay (ELISA) in L540 cells. The experiment is classed as cell-based. The note with it: Homo sapiens, L-540, 24 hours, normalized to cell viability, read-out: P-STAT5 Assay IC50. The protocol: The L540 cell line harbors a truncating mutation in the C-terminal regulatory region of the protein. As a consequence, TNK1 in L540 cells is constitutively active in phosphorylating key proteins, including STAT5. In TNK1 wild-type conditions (e.g., K562 CML cells), STAT5 phosphorylation is achieved in a TNK1-independent fashion. As such, reductions in phospho-STAT5 signal specific to the L540 cells are a good readout of TNK1 inhibitor function.
Methods: The in vitro pSTAT5 assay was performed with STAT5 AB (pY964/699) SimpleStep ELISA Kit (Abcam No. ab176656) according to the manufacturer's protocol. Briefly, L540 cells were grown in RPMI1640 media under standard culture conditions (10% FBS with penicillin/streptomycin). To assess test compound effects, cells were plated in 96 well plates (250,000 cells/mL) and allowed to grow overnight. Cells were subsequently treated with varying concentrations of test compound for 24 hours, before being harvested and interrogated with the STAT5 AB (pY964/699) SimpleStep ELISA Kit according to the manufacturer's protocol. Phospho-STAT5 signal was normalized to cell viability, as assessed by the CellTiter-Glo assay (Promega, Cat. No. G7570) on treated cells. TNK1 inhibitor IC50s were determined using Graphpad Prism software on normalized phospho-STAT5 measurements.

A further experiment has as its system L540 cells. The experiment can be described thus: In-vitro cell viability assay (CellTiter-Glo), L540. The experiment is classed as cell-based. As to conditions: Homo sapiens, L-540. The method, then:
Tnk1 is known to drive proliferation and survival of Hodgkin's lymphoma (HL) cells, such as K652 and L540 cell lines (Gu et al., Identification of activated Tnk1 kinase in Hodgkin's lymphoma, Leukemia 24: 861-65 ((2010)). Downregulation of Tnk1 inhibits cell growth and proliferation, and increases apoptosis. To study the individual test compounds in the context of HL cells, CellTiter-Glo® assays (Promega, Madison, Wis.) were performed according to the manufacturer's instructions. The CellTiter-Glo® assay system uses a thermostable luciferase to generate a stable “glow-type” luminescent signal while simultaneously inhibiting endogenous enzymes released during cell lysis (e.g., ATPases). As such, the assay provides a sensitive and stable luminescent output.
Reagent Preparation • 1. The CellTiter-Glo® Buffer was thawed and equilibrated to room temperature prior to use. • 2. The lyophilized CellTiter-Glo® Substrate was equilibrated to room temperature prior to use. • 3. An appropriate volume of CellTiter-Glo® Buffer was transferred into the amber bottle containing CellTiter-Glo® Substrate according the manufacturer's recommendation. The reconstituted lyophilized enzyme/substrate mixture formed the CellTiter-Glo® Reagent. • 4. The CellTiter-Glo® Reagent was mixed by gently vortexing, swirling or inverting the contents to obtain a homogeneous solution.
Protocol for the Cell Viability Assay • 1. A titration of the K652 or L540 cells was performed to determine the optimal number and ensure that the CellTiter-Glo® Assay was performed within the linear range. • 2. Opaque-walled multiwell plates (compatible with the luminometer) were prepared with K652 or L540 cells in culture medium, 100 μl per well for 96-well plates or 25 μl per well for 384-well plates. • 3. Control wells containing medium without cells were prepared to obtain a value for background luminescence. • 4. Test compound was added to experimental wells, and incubated according to culture protocol. • 5. The plate and its contents were equilibrated at room temperature for approximately 30 minutes.
Protocol for Generating an ATP Standard Curve • 1. 1 μM ATP was prepared in culture medium (100 μl of 1 μM ATP solution contains 10^−10 moles ATP). • 2. Serial tenfold dilutions of ATP in culture medium (1 μM to 10 nM; 100 μl contains 10^−10 to 10^−12 moles of ATP) were performed. • 3. A multiwell plate with varying concentrations of ATP standard in 100 μl medium (25 μl for a 384-well plate) was prepared. • 4. A volume of CellTiter-Glo® Reagent equal to the volume of ATP standard present in each well was added. • 5. Contents were mixed for 2 minutes on an orbital shaker. • 6. The plate was allowed to incubate at room temperature for 10 minutes to stabilize the luminescent signal. • 7. Luminescence was recorded.
On the technique in general: ATP-based viability assays read luminescence as a measure of living cells.

As usually defined, the pIC50 is −log10 of the IC50, conventionally taken in molar units. As a reminder, the IC50 is the concentration that inhibits the measured activity by half. Low values mean greater potency in that assay, high ones weaker potency in that assay. Take `COc1cc(N2CCN(C)CC2)ccc1Nc1ncc(Cl)c(Nc2cccnc2N2CCCC2=O)n1` [compound 2, 1-(3-((5-chloro-2-((2-methoxy-4-(4-methylpiperazin-1-yl)phenyl)amino)pyrimidin-4-yl)amino)pyridin-2-yl)pyrrolidin-2-one]: in experiment [1], the negative-log IC50 (pIC50) was more than 8.30. Besides, the IC50 with L540 cells lay in the range of 0.5 to 1.5 µM.
The corresponding values for `CN1CCN(c2ccc(Nc3ncc(Cl)c(Nc4cccnc4N4CCCC4=O)n3)cc2)CC1` [compound 1, 1-(3-((5-chloro-2-((4-(4-methylpiperazin-1-yl)phenyl)amino)pyrimidin-4-yl)amino)pyridin-2-yl)pyrrolidin-2-one] are more than 8.30 and 0.5 to 1.5 µM.
The corresponding values for `CC(C)Oc1cc(N2CCN(C)CC2)ccc1Nc1ncc(Cl)c(Nc2cccnc2N(C)C)n1` [compound 4, 5-chloro-N^4-(2-(dimethylamino)pyridin-3-yl)-N^2-(2-isopropoxy-4-(4-methylpiperazin-1-yl)phenyl)pyrimidine-2,4-diamine] are less than 7.30 and not below 6 µM.
For `CCOc1cc(N2CCN(C)CC2)ccc1Nc1ncc(Cl)c(Nc2cccnc2N(C)C)n1` [compound 3, 5-chloro-N^4-(2-(dimethylamino)pyridin-3-yl)-N^2-(2-ethoxy-4-(4-methylpiperazin-1-yl)phenyl)pyrimidine-2,4-diamine], in that order: 7.30 to 8.30 and not below 6 µM.
`CN1CCN(c2c(Cl)cc(Nc3ncc(Cl)c(Nc4cccnc4N4CCCC4=O)n3)c3ccccc23)CC1` [Example No. 18, 1-(3-((5-chloro-2-((3-chloro-4-(4-methylpiperazin-1-yl)naphthalen-1-yl)amino)pyrimidin-4-yl)amino)pyridin-2-yl)pyrrolidin-2-one]: the pIC50 in experiment [1] was more than 8.30. The 50% inhibitory concentration (IC50) in the experiment on L540 cells is less than 0.5 µM.
The corresponding values for `COc1cc(N2CCN(C)CC2)c(Cl)cc1Nc1ncc(Cl)c(Nc2cccnc2N2CCCC2=O)n1` [Example No. 13, 1-(3-((5-chloro-2-((5-chloro-2-methoxy-4-(4-methylpiperazin-1-yl)phenyl)amino)pyrimidin-4-yl)amino)pyridin-2-yl)pyrrolidin-2-one] are more than 8.30 and less than 0.5 µM.
For `CN1CCN(c2ccc(Nc3ncc(Cl)c(Nc4cccnc4N(C)C)n3)cc2)CC1` [compound 5, 5-chloro-N^4-(2-(dimethylamino)pyridin-3-yl)-N^2-(4-(4-methylpiperazin-1-yl)phenyl)pyrimidine-2,4-diamine], in that order: more than 8.30 and 0.5 to 1.5 µM.
In the case of `COc1cc(N2CCN(C)CC2)c(C)cc1Nc1ncc(Cl)c(Nc2cccnc2N2CCNC2=O)n1` [compound 9, 1-(3-((5-chloro-2-((2-methoxy-5-methyl-4-(4-methylpiperazin-1-yl)phenyl)amino)pyrimidin-4-yl)amino)pyridin-2-yl)imidazolidin-2-one], in experiment [1], the pIC50 was more than 8.30. Moreover, in the experiment on L540 cells, the IC50 is less than 0.5 µM.
In the case of `COc1cc(N2CCN(C)CC2)c(C)cc1Nc1ncc(Br)c(Nc2cccnc2N(C)C)n1` [compound 10, 5-bromo-N^4-(2-(dimethylamino)pyridin-3-yl)-N^2-(2-methoxy-5-methyl-4-(4-methylpiperazin-1-yl)phenyl)pyrimidine-2,4-diamine], in experiment [1], the pIC50 is more than 8.30. In the experiment on L540 cells, this compound came in with an IC50 of less than 0.5 µM.
For `COc1cc(N2CCN(C)CC2)c(Cl)cc1Nc1ncc(Cl)c(Nc2cccnc2N2CCNC2=O)n1` [Example No. 21, 1-(3-((5-chloro-2-((5-chloro-2-methoxy-4-(4-methylpiperazin-1-yl)phenyl)amino)pyrimidin-4-yl)amino)pyridin-2-yl)imidazolidin-2-one], in that order: more than 8.30 and 1.5 to 6 µM.
